Test results from patent US8969516B2, “Method of hydrolysis of peptide bond” (priority 2006, dated 2015).

Assay: MALDI-TOF screening of Ni^2+ dependent hydrolysis in a combinatorial peptide library
Format: physicochemical
Settings: CH3CO-Gly-Ala-Ser-X-His-Z-Lys-Phe-Leu-NH2 library, Ni^2+ 2 mM, pH 8.2, 10 mM Tris, score=24/tm
Description: The sequence CH3CO-Gly-Ala-Ser/Thr-X-His-Z-Lys-Phe-Leu-NH2 was designed so that the fixed R1 and R2 sequences, CH3CO-Gly-Ala, and Lys-Phe-Leu-NH2, respectively, allowed optimal detection by MALDI-TOF mass spectrometry of substrates as well as expected products, Ser/Thr-X-His-Z-Lys-Phe-Leu-NH2 and assured separation between the clusters of signals for substrates and products in sublibraries (see below).
Residues in position X included all amino acids commonly present in proteins, except for Asp, Glu, and Cys. The former two contain carboxylates in their side chains, which may bind Ni^2+ in a way which would quench or slow down the hydrolysis reaction. The Cys residue may do the same, and also may engage in side reactions with Ni^2+ ions, including redox processes (for example see Bal and Kasprzak, Toxicol. Lett. 2002, 127, 55-62). Only the Cys residue was eliminated from position Z, for the same reasons.
The synthesis of the library was accomplished on a RINK amide resin (Novabiochem) on a 800 mg scale, according to a typical Fmoc protocol (Fields, Meth. Enzymol. Vol. 289). The resin-attached Leu-Phe-Lys peptide was synthesised first and coupled with the isokinetic mixture of 19 amino acids selected for position Z, and then with the H is residue. The resin carrying the library of pentapeptides was divided into Ser and Thr halves at this stage, and each of these halves into 17 portions, which were coupled with individual amino acids selected for position X. The coupling with Ser or Thr as appropriate, additions of Ala and Gly residues, acetylation of Gly, deprotection and cleavage from the resin were accomplished subsequently. Each of the resulting 34 samples of sublibraries randomized at position X was separated into two portions, one for the reaction at 37° C. and another for the reaction at 45° C. The hydrolysis reactions were accomplished in 10 mM Tris buffers at pH 8.2. The total concentrations of peptide mixtures and Ni^2+ ions were 1 mM and 2 mM, respectively. The pH for the reaction was chosen as selective for highly reactive sequences.
The detection of reaction products was accomplished with the use of a MALDI-TOF mass spectrometer (Micromass). The aliquots were removed from reaction mixtures and measured by MS at 2, 4, 6, and 8 hours of incubation. The progress of reaction was evaluated by visual detection in mass spectra of appearance of signals corresponding to expected products of hydrolysis, Ser/Thr-X-His-Z-Lys-Phe-Leu-NH2, at given measurement times, tm. […] Also the decrease of signals of substrates was controlled in these cases.
Residues X and Z were then sorted according to various molecular parameters, describing their physical properties (Carugo, In Silico Biol. 2003, 3, 0035). […] The Ser library provided a higher number of reactive peptides than the Thr library. Following the additivity of effects, the scores were also summed up in lines and columns of Table 1A-D, thereby creating final rankings for preferred substitutions in positions X and Z.

Row | Substance | hydrolysis score from MALDI-TOF screening (37° C.) | hydrolysis score from MALDI-TOF screening (45° C.)
1 | Ac-GASAHDKFL-NH2 [SAHD] | 0 (a score of 0 if no trace of the product of hydrolysis was seen after 8 hours of incubation) | 0 (a score of 0 if no trace of the product of hydrolysis was seen after 8 hours of incubation)
2 | Ac-GASAHFKFL-NH2 [SAHF] | 0 (a score of 0 if no trace of the product of hydrolysis was seen after 8 hours of incubation) | 3 (a score of 3 for detection at 8 hours)
3 | Ac-GASAHGKFL-NH2 [SAHG] | 0 (a score of 0 if no trace of the product of hydrolysis was seen after 8 hours of incubation) | 0 (a score of 0 if no trace of the product of hydrolysis was seen after 8 hours of incubation)
4 | Ac-GASAHIKFL-NH2 [SAHI] | 0 (a score of 0 if no trace of the product of hydrolysis was seen after 8 hours of incubation) | 4 (a score of 4 for detection at 6 hours)
5 | Ac-GASAHKKFL-NH2 [SAHK] | 3 (a score of 3 for detection at 8 hours) | 6 (a score of 6 for detection at 4 hours)
6 | Ac-GASAHLKFL-NH2 [SAHL] | 0 (a score of 0 if no trace of the product of hydrolysis was seen after 8 hours of incubation) | 4 (a score of 4 for detection at 6 hours)
7 | Ac-GASAHMKFL-NH2 [SAHM] | 0 (a score of 0 if no trace of the product of hydrolysis was seen after 8 hours of incubation) | 0 (a score of 0 if no trace of the product of hydrolysis was seen after 8 hours of incubation)
8 | Ac-GASAHNKFL-NH2 [SAHN] | 0 (a score of 0 if no trace of the product of hydrolysis was seen after 8 hours of incubation) | 0 (a score of 0 if no trace of the product of hydrolysis was seen after 8 hours of incubation)
9 | Ac-GASAHQKFL-NH2 [SAHQ] | 0 (a score of 0 if no trace of the product of hydrolysis was seen after 8 hours of incubation) | 0 (a score of 0 if no trace of the product of hydrolysis was seen after 8 hours of incubation)
10 | Ac-GASAHRKFL-NH2 [SAHR] | 3 (a score of 3 for detection at 8 hours) | 6 (a score of 6 for detection at 4 hours)
11 | Ac-GASAHSKFL-NH2 [SAHS] | 0 (a score of 0 if no trace of the product of hydrolysis was seen after 8 hours of incubation) | 0 (a score of 0 if no trace of the product of hydrolysis was seen after 8 hours of incubation)
12 | Ac-GASAHTKFL-NH2 [SAHT] | 0 (a score of 0 if no trace of the product of hydrolysis was seen after 8 hours of incubation) | 0 (a score of 0 if no trace of the product of hydrolysis was seen after 8 hours of incubation)
13 | Ac-GASAHVKFL-NH2 [SAHV] | 0 (a score of 0 if no trace of the product of hydrolysis was seen after 8 hours of incubation) | 3 (a score of 3 for detection at 8 hours)
14 | Ac-GASAHWKFL-NH2 [SAHW] | 4 (a score of 4 for detection at 6 hours) | 6 (a score of 6 for detection at 4 hours)
15 | Ac-GASAHYKFL-NH2 [SAHY] | 0 (a score of 0 if no trace of the product of hydrolysis was seen after 8 hours of incubation) | 3 (a score of 3 for detection at 8 hours)
16 | Ac-GASFHAKFL-NH2 [SFHA] | 0 (a score of 0 if no trace of the product of hydrolysis was seen after 8 hours of incubation) | 3 (a score of 3 for detection at 8 hours)
17 | Ac-GASFHDKFL-NH2 [SFHD] | 0 (a score of 0 if no trace of the product of hydrolysis was seen after 8 hours of incubation) | 0 (a score of 0 if no trace of the product of hydrolysis was seen after 8 hours of incubation)

Row | Substance | hydrolysis score from MALDI-TOF screening (37° C.) | hydrolysis score from MALDI-TOF screening (45° C.)
18 | Ac-GASFHEKFL-NH2 [SFHE] | 0 (a score of 0 if no trace of the product of hydrolysis was seen after 8 hours of incubation) | 3 (a score of 3 for detection at 8 hours)
19 | Ac-GASFHFKFL-NH2 [SFHF] | 3 (a score of 3 for detection at 8 hours) | 6 (a score of 6 for detection at 4 hours)
20 | Ac-GASFHGKFL-NH2 [SFHG] | 0 (a score of 0 if no trace of the product of hydrolysis was seen after 8 hours of incubation) | 0 (a score of 0 if no trace of the product of hydrolysis was seen after 8 hours of incubation)
21 | Ac-GASFHIKFL-NH2 [SFHI] | 4 (a score of 4 for detection at 6 hours) | 6 (a score of 6 for detection at 4 hours)
22 | Ac-GASFHKKFL-NH2 [SFHK] | 4 (a score of 4 for detection at 6 hours) | 6 (a score of 6 for detection at 4 hours)
23 | Ac-GASFHLKFL-NH2 [SFHL] | 4 (a score of 4 for detection at 6 hours) | 6 (a score of 6 for detection at 4 hours)
24 | Ac-GASFHMKFL-NH2 [SFHM] | 0 (a score of 0 if no trace of the product of hydrolysis was seen after 8 hours of incubation) | 3 (a score of 3 for detection at 8 hours)
25 | Ac-GASFHNKFL-NH2 [SFHN] | 0 (a score of 0 if no trace of the product of hydrolysis was seen after 8 hours of incubation) | 0 (a score of 0 if no trace of the product of hydrolysis was seen after 8 hours of incubation)
26 | Ac-GASFHPKFL-NH2 [SFHP] | 0 (a score of 0 if no trace of the product of hydrolysis was seen after 8 hours of incubation) | 0 (a score of 0 if no trace of the product of hydrolysis was seen after 8 hours of incubation)
27 | Ac-GASFHQKFL-NH2 [SFHQ] | 0 (a score of 0 if no trace of the product of hydrolysis was seen after 8 hours of incubation) | 0 (a score of 0 if no trace of the product of hydrolysis was seen after 8 hours of incubation)
28 | Ac-GASFHRKFL-NH2 [SFHR] | 4 (a score of 4 for detection at 6 hours) | 6 (a score of 6 for detection at 4 hours)
29 | Ac-GASFHSKFL-NH2 [SFHS] | 0 (a score of 0 if no trace of the product of hydrolysis was seen after 8 hours of incubation) | 0 (a score of 0 if no trace of the product of hydrolysis was seen after 8 hours of incubation)
30 | Ac-GASFHTKFL-NH2 [SFHT] | 0 (a score of 0 if no trace of the product of hydrolysis was seen after 8 hours of incubation) | 0 (a score of 0 if no trace of the product of hydrolysis was seen after 8 hours of incubation)
31 | Ac-GASFHVKFL-NH2 [SFHV] | 3 (a score of 3 for detection at 8 hours) | 6 (a score of 6 for detection at 4 hours)
32 | Ac-GASFHWKFL-NH2 [SFHW] | 4 (a score of 4 for detection at 6 hours) | 6 (a score of 6 for detection at 4 hours)
33 | Ac-GASFHYKFL-NH2 [SFHY] | 3 (a score of 3 for detection at 8 hours) | 6 (a score of 6 for detection at 4 hours)
34 | Ac-GASGHAKFL-NH2 [SGHA] | 0 (a score of 0 if no trace of the product of hydrolysis was seen after 8 hours of incubation) | 0 (a score of 0 if no trace of the product of hydrolysis was seen after 8 hours of incubation)
